Source: publication PMC10525516, “Novel NADPH Oxidase-2 Inhibitors as Potential Anti-Inflammatory and Neuroprotective Agents” (Antioxidants, 2023)

Columns and labels:
Nox2 = target: T1, Nox2 (Homo sapiens, UniProt P04839); assay: Amplex Red/HRP assay of H2O2 production by PMA-activated dHL60 cells; assay type: cell-based; details: PMA (1 µM)-activated dHL60 cells, 30 min preincubation; read-out: IC50, inhibition of H2O2 production, Amplex Red Assay
T1 construct: endogenous in cells
T1 sequence (P04839 2-570 limits assumed): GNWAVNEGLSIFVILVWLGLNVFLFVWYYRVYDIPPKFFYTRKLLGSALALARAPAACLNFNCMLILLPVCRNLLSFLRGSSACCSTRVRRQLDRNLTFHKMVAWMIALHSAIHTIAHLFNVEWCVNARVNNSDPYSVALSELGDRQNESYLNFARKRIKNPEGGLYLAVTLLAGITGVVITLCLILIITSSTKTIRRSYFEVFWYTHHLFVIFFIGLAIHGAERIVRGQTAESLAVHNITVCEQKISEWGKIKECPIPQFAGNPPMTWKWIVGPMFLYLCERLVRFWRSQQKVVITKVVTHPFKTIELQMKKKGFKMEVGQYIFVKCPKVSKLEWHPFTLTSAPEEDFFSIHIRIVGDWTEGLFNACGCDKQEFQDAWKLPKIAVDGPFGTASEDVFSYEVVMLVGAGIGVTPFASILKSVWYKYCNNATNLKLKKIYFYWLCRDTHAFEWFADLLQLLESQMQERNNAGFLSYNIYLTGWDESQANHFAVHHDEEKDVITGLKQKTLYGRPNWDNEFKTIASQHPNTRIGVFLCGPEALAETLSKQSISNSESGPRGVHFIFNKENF
T1 sequence (P13498 2-195 partner limits assumed): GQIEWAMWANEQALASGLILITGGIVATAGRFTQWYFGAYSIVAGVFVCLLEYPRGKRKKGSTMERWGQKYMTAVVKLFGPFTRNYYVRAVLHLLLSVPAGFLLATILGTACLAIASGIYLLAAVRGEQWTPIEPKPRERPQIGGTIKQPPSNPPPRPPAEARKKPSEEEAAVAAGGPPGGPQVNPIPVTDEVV
Description: Human promyelocytic leukemia HL60 cells (Sigma-Aldrich) were grown in RPMI 1640 medium (Gibco, 11875-093, Billings, MT, USA) supplemented with 10% FBS (Omega Scientific (Tarzana, CA, USA)), 100 units/mL penicillin, and 100 µg/mL streptomycin, and were incubated at 37 °C and 5% carbon dioxide (CO2). For differentiation to neutrophil-like cells, HL60 cells were pelleted and resuspended in fresh media containing 1 µM of all trans-retinoic acid and incubated for four to five days. Nox2 activation was achieved by treating differentiated HL60 (dHL60) cells with 1 µM PMA [24]. Human leukemia monocytic cells, THP-1, were grown in RPMI 1640 medium + GlutaMAX^TM (Gibco, 61870-036) and supplemented with 10% FBS, 10 mM HEPES, and 1 mM sodium pyruvate and incubated at 37 °C in 5% CO2 environment. To induce differentiation into macrophages, THP-1 cells were treated with PMA (100 ng/mL) for 48 h. To test the efficacy of Nox2 inhibitors, treatment was performed with or without the inhibitor, along with PMA [35].
Plate reader-based analyses of the production of O2^•− and H2O2 by PMA-activated dHL60 cells were performed according to a published protocol with minor modifications. Briefly, for the treatment of dHL60 cells with different concentrations of the compounds, 0.5 mL deep-well 96-well plates were used to dispense and store aliquots of their 10 mM DMSO solutions. Using a Multidrop™ PicoIT dispenser (Thermo Scientific), different volumes of the solutions of candidate Nox inhibitors (10 or 50 mM in DMSO) were injected into the bottom of 0.5 mL V-bottom 96-well plates; then, they were sealed with aluminum foil (VWR, Batavia, IL, USA) using a semiautomatic thermal sealer (BT LabSystems, St. Louis, MO, USA) and stored at −20 °C to reduce freeze-thawing the solutions. The plates with inhibitors were allowed to come to room temperature before the addition of the cell suspensions. dHL60 cells were pelleted and resuspended in HBSS (Invitrogen, Waltham, MA, USA) supplemented with 25 mM HEPES (pH 7.4) and 100 µM DTPA to a cell density of 2 × 10^5 cells/mL. dHL60 cells were added to the V-bottom plates at a volume of 210 µL/well. Next, cells were incubated with inhibitors for 30 min at 37 °C in a CO2-free incubator under ambient oxygen and then transferred to black, clear-bottom 96-well plates (200 µL/well) after incubation. Freshly prepared PMA plus probe solutions in HBSS (5× concentrated, 50 µL/well) included PMA (5 µM) with CBA (500 µM) or with Amplex Red (250 µM) plus HRP (0.5 U/mL) for H2O2 detection, or with HE (50 µM) plus DNA (0.5 mg/mL) for O2^•− detection. Once probes + PMA were added, plates were sealed with sealing film and immediately placed in the pre-warmed plate readers (37 °C). Fluorescence intensities were monitored kinetically from the bottom of the plates every 1.3 min for a period of 2 h using Beckman Coulter (Brea, CA, USA) DTX880 and BMG Labtech (Ortenberg, Germany) FLUOstar Omega plate readers. DMSO alone and DPI (10 µM) were used as negative and positive controls, respectively. […] The IC50 values were determined using at least five independent measurements, each consisting of technical quadruplicates per concentration.

dHL60 cells = assay: Cell Titer Glo 2.0 cytotoxicity (ATP) assay in PMA-stimulated dHL60 cells; assay type: cell-based, human
Description: The cytotoxicity of the inhibitors was tested by measuring the amount of ATP in the wells containing PMA-stimulated dHL60 cells and the candidate inhibitors. Cells were prepared as described for the plate reader-based measurements for H2O2, except that the cells were maintained with the inhibitors in a CO2-free incubator at 37 °C for 2.5 h to mirror the conditions during the fluorescence-based monitoring of H2O2 described above. After incubation, cells (100 µL/well) were transferred to white 96-well plates (Greiner, Kremsmünster, Austria), and the total cellular ATP amount was determined using the Cell Titer Glo 2.0 (Promega) cytotoxicity assay (100 µL/well) by measuring the luminescence intensity using a Beckman Coulter DTX880 plate reader.

[1] = In vivo pharmacokinetics / brain penetration, species not specified (rodent models); details: rat, intraperitoneal, 20 mg/kg, rodent models
Description: Rapid metabolism and the inability to cross the BBB represent major obstacles in the application of bioactive agents in neurodegenerative diseases. Based on the premise that Nox2 plays a major role in oxidative damage and exacerbates neurodegenerative diseases, we envision applications of brain-permeable Nox2 inhibitors in mechanistic studies in vivo, and, long-term, in the development of novel therapeutic strategies. Therefore, we performed in vivo pharmacokinetics studies to determine the time profile of plasma concentration and accumulation of TG15-132 in the brain tissue of Sprague Dawley rats and C57BL6 mice.

CN(C)CCCn1c(SCCc2c[nH]c3ccccc23)nc2ccc(F)cc2c1=O [TG15-132]
IC50 (Nox2): 7.9 ± 3 µM
IC50 (dHL60 cells; Homo sapiens, Cell Titer Glo 2.0, PMA-stimulated dHL60 cells, 2.5 h with inhibitor, unit not printed in Table 3, taken from text, read-out: IC50, Viability Assay): 34.5 ± 6 µM
cell viability at concentrations showing Nox2 inhibitory potency (dHL60 cells; dHL60 cells, Figure 3D,E): no decrease in cell viability
Kp ([1]; Sprague Dawley (rat), C57BL6 (mouse), mouse, brain, read-out: brain-to-plasma ratio (abstract)): > 5
half-life ([1]; Sprague Dawley, plasma, read-out: plasma half-life (abstract) (converted)): 5.6 h
